From the supplement of paper PMC10331698
± gives the standard deviation of the averaged measurements.

Legend:
Test in all cases: level (log10 ratio to DMSO vehicle control); higher = higher biomarker level / cell amount than vehicle control
[1] = compound: C=C(C)C(=O)OCCC(F)(F)C(F)(F)C(F)(F)C(F)(F)C(F)(C(F)(F)F)C(F)(F)F [(Perfluoro-5-methylhexyl)ethyl 2-methylprop-2-enoate]; settings: in DMSO
Protocol: (§1)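 BioMAP Diversity Plus panel of 12 human primary cell co-culture systems (3C, 4H, LPS, SAg, BT, BF4T, BE3C, CASM3C, HDF3CGF, KF3CT, MyoF, Mphg). Compounds were added 1 h before stimulation and left for 24 h (MyoF 48 h; BT 72 h for soluble read-outs or 6 d for IgG). Biomarkers were read by ELISA, cytotoxicity by SRB, PBMC viability and proliferation by Alamar Blue. Each well value was divided by the mean of 8 DMSO control wells on the same plate and log10 transformed; duplicate blinded samples were tested at 4 concentrations.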

[2] = compound: FC(F)C(F)(F)COCC1CO1 [((2,2,3,3-Tetrafluoropropoxy)methyl)oxirane]; settings: in DMSO
Protocol: as §1

[3] = compound: O=C(O)C(F)(F)C(F)(F)C(F)(F)OC(F)(C(F)(F)F)C(F)(F)F [Perfluoro-4-isopropoxybutanoic acid]; settings: in DMSO
Protocol: as §1

[4] = compound: FC(F)(F)C(F)(F)C(F)(F)C(F)(F)C(F)(F)C(F)(F)C(F)(F)C(F)(F)CCS [2-(Perfluorooctyl)ethanthiol]; settings: in DMSO
Protocol: as §1

[5] = compound: C=CC(F)(F)C(F)(F)C(F)(F)C(F)(F)C(F)(F)C(F)(F)C(F)(F)C(F)(F)C=C [1,8-Divinylperfluorooctane]; settings: in DMSO
Protocol: as §1

[6] = compound: O=C(O)C(F)(F)C(F)(F)C(F)(F)C(F)(F)C(F)(F)C(F)(F)C(F)(F)C(F)F [9-H-Perfluorononanoic acid]; settings: in DMSO
Protocol: as §1

[7] = compound: OCCCC(F)(F)C(F)(F)C(F)(F)C(F)(F)C(F)(F)C(F)(F)C(F)(F)F [7:3 Fluorotelomer alcohol]; settings: 6700 nM; in DMSO
Protocol: as §1

[8] = compound: NCC(F)(F)C(F)(F)C(F)(F)C(F)(F)C(F)(F)C(F)(F)C(F)(F)F [1H,1H-Perfluorooctylamine]; settings: in DMSO
Protocol: as §1

| Test System | level (log10) ([1]; 6700 nM) | level (log10) ([1]; 20000 nM) | level (log10) ([2]; 6700 nM) | level (log10) ([2]; 20000 nM) | level (log10) ([2]; 60000 nM) | level (log10) ([3]; 6700 nM) | level (log10) ([3]; 20000 nM) | level (log10) ([3]; 60000 nM) | level (log10) ([4]; 6700 nM) | level (log10) ([4]; 20000 nM) | level (log10) ([5]; 6700 nM) | level (log10) ([5]; 20000 nM) | level (log10) ([6]; 6700 nM) | level (log10) ([6]; 20000 nM) | level (log10) ([6]; 60000 nM) | level (log10) [7] | level (log10) ([8]; 6700 nM) | level (log10) ([8]; 20000 nM) | level (log10) ([8]; 60000 nM) |
| --- | --- | --- | --- | --- | --- | --- | --- | --- | --- | --- | --- | --- | --- | --- | --- | --- | --- | --- | --- |
| lMphg:CCL2/MCP-1 | 0.014 ± 0.0099 | 0.0175 ± 0.037 | -0.039 ± 0.034 | -0.018 ± 0.048 | -0.0095 ± 0.029 | -0.018 ± 0.0042 | -0.0185 ± 0.0092 | 0.0175 ± 0.0078 | -0.0125 ± 0.0078 | -0.003 ± 0.02 | -0.0195 ± 0.013 | 0.0125 ± 0.03 | -0.0085 ± 0.0021 | -0.0215 ± 0.013 | 0.014 ± 0.04 | 0.001 ± 0.0057 | -0.03 ± 0.0099 | -0.0245 ± 0.016 | -0.0275 ± 0.04 |
| lMphg:CCL3/MIP-1alpha | -0.008 ± 0.034 | -0.0125 ± 0.044 | -0.027 ± 0.059 | -0.0385 ± 0.084 | -0.0025 ± 0.026 | -0.035 ± 0.0085 | -0.0355 ± 0.029 | -0.005 ± 0.037 | -0.019 ± 0.014 | -0.027 ± 0.014 | -0.019 ± 0.0071 | 0.0065 ± 0.046 | -0.005 | -0.0065 ± 0.0021 | 0.0195 ± 0.036 | -0.0155 ± 0.019 | 0 ± 0.0099 | -0.0215 ± 0.016 | 0.0035 ± 0.044 |
| lMphg:CD40 | 0.0035 ± 0.011 | -0.0085 ± 0.0078 | 0.0185 ± 0.061 | 0.0195 ± 0.029 | 0.0015 ± 0.011 | -0.012 ± 0.013 | -0.041 ± 0.034 | -0.027 ± 0.035 | 0.0035 ± 0.086 | 0.017 ± 0.048 | -0.04 ± 0.0099 | -0.0195 ± 0.032 | 0.014 ± 0.011 | 0.003 ± 0.017 | -0.01 ± 0.024 | -0.0135 ± 0.0078 | 0.0025 ± 0.005 | -0.0125 ± 0.035 | -0.069 ± 0.054 |
| lMphg:CD62E/E-Selectin | -0.0135 ± 0.011 | -0.01 ± 0.017 | -0.0155 ± 0.0064 | -0.0195 ± 0.029 | -0.035 ± 0.011 | -0.011 ± 0.027 | 0.007 ± 0.038 | 0.0005 ± 0.039 | -0.013 ± 0.013 | -0.0295 ± 0.011 | -0.006 ± 0.024 | -0.054 ± 0.038 | -0.005 ± 0.037 | 0.0085 ± 0.035 | 0.0585 ± 0.021 | -0.005 ± 0.048 | 0.0195 ± 0.023 | 0.0085 ± 0.015 | 0.013 ± 0.03 |
| lMphg:CD69 | -0.064 ± 0.082 | -0.0825 ± 0.08 | -0.048 ± 0.02 | -0.001 ± 0.0071 | -0.028 ± 0.033 | -0.044 ± 0.014 | -0.069 ± 0.021 | -0.0455 ± 0.054 | -0.0425 ± 0.039 | -0.069 ± 0.045 | -0.013 ± 0.0042 | -0.011 ± 0.014 | -0.0445 ± 0.088 | -0.038 ± 0.054 | -0.072 ± 0.0099 | -0.0115 ± 0.011 | -0.039 ± 0.0099 | -0.0475 ± 0.019 | -0.0265 ± 0.00071 |
| lMphg:CD106/VCAM-1 | -0.0315 ± 0.011 | -0.014 ± 0.0057 | -0.016 ± 0.038 | -0.0155 ± 0.025 | -0.017 ± 0.017 | -0.0135 ± 0.013 | 0.0015 ± 0.028 | 0.014 ± 0.0057 | -0.0055 ± 0.0064 | -0.0365 ± 0.011 | -0.014 ± 0.018 | -0.016 ± 0.016 | -0.008 ± 0.018 | 0.0185 ± 0.00071 | 0.0075 ± 0.023 | -0.009 ± 0.027 | -0.005 ± 0.0014 | -0.003 ± 0.014 | -0.0165 ± 0.005 |
| lMphg:CXCL8/IL-8 | -0.0035 ± 0.011 | 0.006 ± 0.0028 | -0.0125 ± 0.066 | -0.001 ± 0.017 | -0.005 ± 0.011 | 0.02 ± 0.042 | 0.066 ± 0.038 | 0.164 ± 0.0035 | -0.012 ± 0.016 | 0.008 ± 0.016 | 0.0055 ± 0.026 | 0.0125 ± 0.064 | 0.033 ± 0.021 | 0.0415 ± 0.019 | 0.112 ± 0.0014 | 0.01 ± 0.013 | 0.008 ± 0.031 | 0.018 ± 0.025 | 0.01 ± 0.013 |
| lMphg:IL-1alpha | 0.016 ± 0.018 | 0.0385 ± 0.026 | -0.004 ± 0.017 | -0.039 ± 0.035 | -0.0235 ± 0.033 | -0.005 ± 0.0057 | 0.0045 ± 0.005 | 0.009 ± 0.028 | -0.033 ± 0.078 | -0.0355 ± 0.07 | 0.003 ± 0.027 | 0.046 ± 0.034 | -0.002 ± 0.017 | 0.0105 ± 0.0092 | 0.042 ± 0.057 | 0.017 ± 0.028 | -0.005 ± 0.016 | -0.0045 ± 0.013 | 0.0045 ± 0.0092 |
| lMphg:M-CSF | -0.005 ± 0.042 | 0.015 ± 0.042 | -0.0155 ± 0.013 | 0 ± 0.024 | -0.0265 ± 0.015 | -0.016 ± 0.0028 | -0.0185 ± 0.015 | 0.016 ± 0.0085 | -0.0075 ± 0.023 | 0.012 ± 0.0028 | -0.0315 ± 0.005 | 0.0015 ± 0.039 | -0.008 ± 0.028 | -0.0035 ± 0.018 | -0.0045 ± 0.013 | -0.0205 ± 0.037 | -0.024 ± 0.033 | -0.0185 ± 0.005 | -0.0245 ± 0.0021 |
| lMphg:SRB | -0.0035 ± 0.0035 | -0.0105 ± 0.0021 | -0.008 ± 0.0042 | 0 ± 0.0028 | -0.0125 ± 0.0021 | -0.003 ± 0.0071 | -0.0035 ± 0.005 | -0.009 ± 0.023 | -0.008 ± 0.0014 | -0.011 ± 0.013 | 0.0125 ± 0.00071 | 0.019 ± 0.0028 | 0.0005 ± 0.00071 | 0.002 ± 0.0057 | -0.0115 ± 0.005 | -0.0085 ± 0.0064 | -0.008 ± 0.0085 | 0.001 ± 0.0042 | -0.002 ± 0.0099 |
| lMphg:SRB-Mphg | 0.0015 ± 0.011 | -0.0095 ± 0.021 | 0.0075 ± 0.016 | 0.021 ± 0.025 | 0.02 ± 0.033 | -0.0085 ± 0.012 | -0.0025 ± 0.005 | -0.019 ± 0.0028 | 0.007 ± 0.0057 | 0.0105 ± 0.018 | -0.0135 ± 0.016 | 0.0495 ± 0.0092 | 0.0225 ± 0.018 | 0.043 ± 0.013 | 0.0175 ± 0.032 | -0.0015 ± 0.0021 | -0.0055 ± 0.005 | -0.007 ± 0.0042 | 0.0055 ± 0.032 |
| lMphg:sIL-10 | 0.0215 ± 0.029 | -0.0195 ± 0.12 | -0.087 ± 0.024 | -0.043 ± 0.027 | 0.0075 ± 0.018 | -0.116 ± 0.018 | -0.04 ± 0.047 | -0.187 ± 0.031 | -0.122 ± 0.065 | 0.0325 ± 0.046 | -0.053 ± 0.085 | -0.0135 ± 0.03 | -0.0465 ± 0.00071 | -0.0225 ± 0.04 | -0.642 ± 0.04 | -0.0345 ± 0.032 | -0.067 ± 0.14 | -0.002 ± 0.082 | -0.022 ± 0.04 |
